{"source": "patent US20240252463A1", "about": "“METHODS OF TREATING FIBROTIC PATHOLOGIES” (Mayo Foundation for Medical Education and Research, priority 2018, published 2024)", "key": {"pYAP (Ser 127)": {"system": "pYAP (Ser 127)", "assay": "Western blotting of YAP serine 127 phosphorylation, IMR-90 cells", "assay_type": "cell-based, human", "settings": "IMR-90, DHX 10 μM, 2 hours", "description": "(§1) Scale bar represents 100 μm. […] Scale bar represents 100 μm."}, "YAP/TAZ": {"system": "YAP/TAZ", "assay": "YAP/TAZ localization in pulmonary epithelial (NHAEpC) and endothelial (NHMVEC) cells", "assay_type": "cell-based, human", "settings": "FIG. 2b", "description": "as §1\nImmunofluorescenceMicroscopy: Cells were plated into 96 well plates (Corning 3603) in their specific growth media and allowed to attach (8 hours). Media was then exchanged for the indicated conditions for each experiment. Cells were fixed in 3.7% formalin (Sigma-Aldrich), permeabilized in 0.25% Triton X-100 (Sigma-Aldrich) and then blocked with 1% BSA for 1 h. Cells or tissue sections were incubated overnight with mouse monoclonal antibody against αSMA (Sigma-Aldrich F3777), and/or a rabbit monoclonal antibody against YAP/TAZ (Cell Signaling D24E4) diluted 1:200 in PBS with 1% BSA. Cells were then washed and exposed to flourescence-conjugated secondary antibodies (Invitrogen) diluted 1:1000 and DAPI (Thermo Fisher Scientific). Images were taken with a Cytation5 (BioTek) microscope. For scoring αSMA positive cells (FIG. 3b), an observer blinded to the treatment conditions counted αSMA-positive cells using a visual threshold for bright fibrous staining; a minimum of 200 cells was counted for each condition. YAP/TAZ localization was quantified (FIG. 2, 6, 8) using Gen5 (Biotek) software. […] Quantification of double positive (YAP/TAZ and αSMA) cells from lung tissue sections (FIG. 4d) was performed similarly; however separate thresholds were established for both YAP/TAZ and αSMA. A minimum of 4000 cells was quantified for each mouse."}, "NIH-3T3 cells": {"system": "NIH-3T3 cells", "assay": "Matrix Remodeling Measured by Atomic Force Microscopy (NIH-3T3 cell-derived matrix)", "assay_type": "cell-based, mouse", "settings": "TGFβ + ascorbic acid 72 hours, then 10 μM DHX additional 72 hours", "description": "Matrix Remodeling Measured by Atomic Force Microscopy: NIH-3T3 cells were plated to confluence onto gelatin coated (Cell Biologics) AFM compatible tissue culture dishes (Willco) in DMEM containing 10% FBS. After cells attached overnight media was replaced with DMEM containing 2% FBS, 2 ng/mL TGFβ, and 20 μg/mL ascorbic acid to promote matrix deposition. After 72 hours, measurements were made using a BioScope Catalyst AFM (Bruker, MA, USA). Microindentations were performed using a 2.5 μm radius sphere-tipped probe (Novascan, IA, USA) with a spring constant determined at ˜100 pN nm^−1 by thermal fluctuation method. For each dish, 3 different areas were analyzed. Force curves were acquired with MIRO 2.0 (NanoScope 9.1; Bruker) at an indentation rate of […] and a ramp size of […] on different points. 75 force curves were performed per cell dish (25 per area). The Young's modulus E was determined by the fitting of force curve by Hertz model using NanoScope Analysis software (Bruker) and considering Poisson's ratio of 0.5. […]\nThe results above were consistent with DHX not only attenuating key aspects of fibroblast pro-fibrotic activation, but potentially shifting their phenotype toward one that promotes fibrosis clearance and resolution. […] After 72 hours the stiffness of the cells and their cell-derived matrix were measured using atomic force microscopy (AFM). […]"}, "human dermal fibroblasts": {"system": "human dermal fibroblasts", "assay": "Profibrotic gene expression in human dermal fibroblasts +/- TGFβ", "assay_type": "cell-based", "settings": "24 hours +/− 2 ng/mL TGFβ", "description": "Human dermal fibroblasts treated for 24 hours+/−2 ng/mL TGFβ and D1 agonists: DHX and A68930 prior to RNA isolation. N=2. For all other in vitro experiments, cells were treated as indicated prior to RNA isolation using RNeasy Plus Mini Kit (Qiagen) according to manufacturer's instructions. Isolated RNA (250 ng) was then used to synthesize cDNA using SuperScript VILO (Invitrogen). Quantitative PCR was performed using FastStart Essential DNA Green Master (Roche) and analyzed using a LightCycler 96 (Roche). Data are expressed as a fold change by ΔΔCt relative to GAPDH. For in vivo experiments, tissue was immediately frozen, and stored at −80° C. RNA isolation, cDNA synthesis, and qPCR analysis were performed as above."}, "[1]": {"system": "Collagen I and Fibronectin", "assay": "Immuno-ECM: TGFβ-stimulated accumulation of collagen I and fibronectin", "assay_type": "cell-based, human", "settings": "IPF patient-derived fibroblasts, TGFβ 48 hours then DHX 24 hours", "description": "Immuno-ECM: Adapting from previously published methods, IPF patient-derived fibroblasts were plated to confluence in clear-bottom 96-well plates. After cells attached, the medium was swapped for EMEM containing 0.1% FBS+2 ng/mL TGF-β. After 48 hours the indicated concentration of DHX or DMSO control was added to each well and incubated for 24 hours. WST-1 viability reagent was added to each well (Sigma-Aldrich) and measured on a Flexstation 3 (Molecular Devices) plate reader. Cells were then fixed in 3.7% formalin (Sigma-Aldrich), and permeabilized in 0.25% Triton X-100 (Sigma-Aldrich). Wells were washed with tris-buffered saline (TBS) and blocked with Li-Cor Odyssey Blocking Buffer for 60 minutes before overnight incubation in a polyclonal rabbit antibody for fibronectin (Sigma sc-9068) or collagen I (Novus NB600-408) diluted 1:200 in blocking buffer. Wells were washed with TBS-Tween before 45 minute incubation with IR-dye-conjugated secondary antibody (Li-Cor #926-32211) diluted 1:400. Plates were imaged via a Li-Cor OdysseyXL system with quantification performed via densitometry. Data are expressed as IR intensity relative to WST-1 signal absorbance in order to account for any potential compound toxicity."}}, "data": [{"smiles": "Oc1cc2c(cc1O)[C@H]1c3ccccc3CN[C@@H]1CC2", "note": "(racemic) [Dihydrexidine, dihydrexidine]", "values": [{"measurement": "YAP serine 127 phosphorylation", "setting": "pYAP (Ser 127)", "value": "promoted YAP serine 127 phosphorylation"}, {"measurement": "YAP/TAZ localization in pulmonary epithelial and endothelial cells", "setting": "YAP/TAZ", "value": "had no effect on YAP/TAZ localization"}, {"measurement": "stiffness of cells and cell-derived matrix (AFM)", "setting": "NIH-3T3 cells", "value": "significantly reduced the observed stiffness"}, {"measurement": "profibrotic gene expression in human dermal fibroblasts", "setting": "human dermal fibroblasts", "value": "blocks profibrotic gene expression"}, {"measurement": "TGFβ-stimulated accumulation of collagen I and fibronectin", "setting": "[1]", "value": "dose-dependently reversed"}]}]}
